Assay results: US5932608A, “Melatonin derivative dermocosmetic compositions for whitening/depigmenting the skin” (Societe L'Oreal S.A., priority 1996, dated 1999)

Assays:
fungal tyrosinase = assay: in vitro test of inhibition of tyrosinase (dopachrome formation, 475 nm); type: biochemical; conditions: for inhibition of the tyrosinase activity (decrease in the percentage of formation of dopachrome): 25° C., pH 6.5, FIGS. 1 and 2
From the text: According to this test, the amount of dopachrome formed during the reaction sequence for the conversion of tyrosine into melanins was monitored by visible spectrometry at 475 nm. These reactions were catalyzed in vitro by fungal tyrosinase, in the presence of a reductive co-substrate (for example L-dopa in small amounts) in order to initiate the hydroxylation reaction of the L-tyrosine into L-dopa, which was then oxidized catalytically into dopaquinone and then into dopachrome.
The concentration of dopachrome formed over time was thus measured in the presence and absence of the inhibitor. The inhibition effect is expressed by lowering the maximum amount of dopachrome formed (optical density value at 475 nm read at the plateau of the curve) relative to the amount obtained in the absence of inhibitor.
A. 0.1M phosphate buffer pH 6.5 (1% Tween 20)
B. Stock solution of 2×10^-3 M L-tyrosine in A
C. Stock solution of 10^-4 M L-dopa in A
D. Stock solution of fungal tyrosinase containing 2400 units/ml in A
E. Stock solution of the inhibitor at 10^-2 M in A
The solutions C and D were prepared on the day of use.
Reference cell: 3 ml of A
Homogenize and equilibrate at 25° C.
Mixed together rapidly and observed the kinetics by measuring the absorbance as a function of time.

skin pigmentation = conditions: exogenous melatonin; D. B. McElhinney et al., J. Invest. Dermatol, 102 (2), 258-9 (1994); cited from earlier work

## COc1cc2c(CCNC(C)=O)c[nH]c2cc1O [6-hydroxymelatonin]
Fungal tyrosinase; 0.1 ml of solution E (inhibitor 10^-2 M stock) in 3 ml test cell
  inhibition of the tyrosinase activity (decrease in the percentage of formation of dopachrome): significant inhibition
Fungal tyrosinase; 0.2 ml of solution E (inhibitor 10^-2 M stock) in 3 ml test cell
  inhibition of the tyrosinase activity (decrease in the percentage of formation of dopachrome): significant inhibition

## COc1ccc2[nH]cc(CCNC(C)=O)c2c1 [melatonin, N-acetyl-5-methoxytryptamine]
Fungal tyrosinase; similar tests, amount of inhibitor not stated
  inhibition of the tyrosinase activity: absence of inhibition
Skin pigmentation
  effect on skin pigmentation in man: no effect
